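These data come from cells grown in 96-well plates and exposed to compound for 48 hours at five concentrations. The concentration for 50% growth inhibition is given as GI50. Definition used: TGI = concentration required for complete inhibition of growth.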
Assays:
Assay in all cases: DTP human tumour cell line panel, 48 h
SNB-75 CNS = tested on: SNB-75 CNS
DU-145 prostate = tested on: DU-145 prostate
SK-OV-3 ovarian = tested on: SK-OV-3 ovarian
SK-MEL-5 melanoma = tested on: SK-MEL-5 melanoma
K-562 leukemia = tested on: K-562 leukemia
SR leukemia = tested on: SR leukemia
OVCAR-3 ovarian = tested on: OVCAR-3 ovarian
NCI-H460 lung = tested on: NCI-H460 lung
NCI-H23 lung = tested on: NCI-H23 lung
RPMI-8226 leukemia = tested on: RPMI-8226 leukemia
HCC-2998 colon = tested on: HCC-2998 colon
T-47D breast = tested on: T-47D breast
LOX IMVI melanoma = tested on: LOX IMVI melanoma
UACC-62 melanoma = tested on: UACC-62 melanoma
SF-539 CNS = tested on: SF-539 CNS
BT-549 breast = tested on: BT-549 breast
RXF 393 renal = tested on: RXF 393 renal
SN12C renal = tested on: SN12C renal
SF-295 CNS = tested on: SF-295 CNS
HOP-62 NSCLC = tested on: HOP-62 NSCLC
UO-31 renal = tested on: UO-31 renal
HT29 colon = tested on: HT29 colon
MCF7 breast = tested on: MCF7 breast
NCI-H522 lung = tested on: NCI-H522 lung
MDA-MB-435 = tested on: MDA-MB-435
HS 578T breast = tested on: HS 578T breast
HCT-15 colon = tested on: HCT-15 colon
ACHN renal = tested on: ACHN renal

For `CC1=C(CC(=O)c2cccc([N+](=O)[O-])c2)C(=O)c2ccccc2C1=O`, the GI50 (SNB-75 CNS) was 2.22 µM, the TGI (SNB-75 CNS) was 10.2 µM and the GI50 (DU-145 prostate) was 7.55 µM. For the same molecule, the TGI (DU-145 prostate) was 20.1 µM, the GI50 (SK-OV-3 ovarian) was 28.6 µM and the TGI (SK-OV-3 ovarian) was 99.2 µM. It also gave a GI50 (SK-MEL-5 melanoma) of 1.67 µM, a TGI (SK-MEL-5 melanoma) of 3.73 µM and a GI50 (K-562 leukemia) of 7.25 µM. For the same molecule, the TGI (K-562 leukemia) was 38.9 µM, the GI50 (SR leukemia) was 3.21 µM and the TGI (SR leukemia) was 12.6 µM. It also gave a GI50 (OVCAR-3 ovarian) of 2.82 µM, a TGI (OVCAR-3 ovarian) of 9.34 µM and a GI50 (NCI-H460 lung) of 18.2 µM. For the same molecule, the TGI (NCI-H460 lung) was > 100 µM, the GI50 (NCI-H23 lung) was 9.12 µM and the TGI (NCI-H23 lung) was 36.9 µM. For the same molecule, the GI50 (RPMI-8226 leukemia) was 4.42 µM, the TGI (RPMI-8226 leukemia) was 37.4 µM and the GI50 (HCC-2998 colon) was 38 µM. For the same molecule, the TGI (HCC-2998 colon) was > 100 µM, the GI50 (T-47D breast) was 2.46 µM and the TGI (T-47D breast) was 8.47 µM. For the same molecule, the GI50 (LOX IMVI melanoma) was 2.22 µM, the TGI (LOX IMVI melanoma) was 8.31 µM and the GI50 (UACC-62 melanoma) was 2.63 µM. The TGI (UACC-62 melanoma) was 8.4 µM, the GI50 (SF-539 CNS) was 3.02 µM and the TGI (SF-539 CNS) was 10.9 µM. It also gave a GI50 (BT-549 breast) of 13.2 µM, a TGI (BT-549 breast) of 26.5 µM and a GI50 (RXF 393 renal) of 3.14 µM. The TGI (RXF 393 renal) was 16.6 µM, the GI50 (SN12C renal) was 2.61 µM and the TGI (SN12C renal) was 8.39 µM. For the same molecule, the GI50 (SF-295 CNS) was 17.7 µM, the TGI (SF-295 CNS) was 36.4 µM and the GI50 (HOP-62 NSCLC) was 4.05 µM. The TGI (HOP-62 NSCLC) was 16.1 µM, the GI50 (UO-31 renal) was 10.7 µM and the TGI (UO-31 renal) was 28.8 µM. It also gave a GI50 (HT29 colon) of 20.1 µM, a TGI (HT29 colon) of 58.8 µM and a GI50 (MCF7 breast) of 1.41 µM. It also gave a TGI (MCF7 breast) of 3.65 µM, a GI50 (NCI-H522 lung) of 2.97 µM and a TGI (NCI-H522 lung) of 8.84 µM. The GI50 (MDA-MB-435) was 2.13 µM, the TGI (MDA-MB-435) was 4.04 µM and the GI50 (HS 578T breast) was 4.74 µM. The TGI (HS 578T breast) was 48.6 µM, the GI50 (HCT-15 colon) was 3.79 µM and the TGI (HCT-15 colon) was 19.5 µM. For the same molecule, the GI50 (ACHN renal) was 2.96 µM and the TGI (ACHN renal) was 11.9 µM.

Reference: PubChem BioAssay (NCI)
